This is an account of results in patent US20150374660A1, “Ascorbate Esters of Omega-3 Fatty Acids and Their Formulations and Uses” (JIVA PHARMA, INC., priority 2013, published 2015).

For data set [1], the system named is cultured primary human myocytes. In words: fatty acid oxidation rates in cultured primary human myocytes (radiolabeled CO2 release). The following applies: 48 hr, n=6; for differences from control in fatty acid oxidation: ethanol control, 30, 100 and 300 micromolar; for promotion of fatty acid oxidation (complete oxidation, CO2): normal primary human myocytes, 30, 100 and 300 micromolar, radiolabeled oleic acid, compared to EPAEE. Format: cell-based. An excerpt: FIG. 1 is a graph of the data obtained from biology tests described herein of EPA and DHA ascorbates on fatty acid oxidation rates in cultured on normal primary human myocytes. The vertical axis is the complete oxidation (nmol CO2/mg protein). The statistical variance is shown by the “T” at the top of each bar. The #1 bar (solid coral) is the ethanol as control; #2 bars (solid gray, from left to right are 30, 100 and 300 micromolar) of EPA; #3 bars (solid green, from left to right are 30, 100 and 300 micromolar) of EPAX; #4 bars (hash red and white, from left to right are 30, 100 and 300 micromolar) of DHAX; and #5 bars (solid red, from left to right are 30, 100 and 300 micromolar) of EPAEE.
Effect of EPA and DHA ascorbates on fatty acid oxidation rates in cultured primary human myocytes were determined and discussed below.
Cell-based multiwell assays for the detection of substrate accumulation and oxidation are described in literature (A. J. Wensaas, et al., J. of Lipid Research 48, 961-967 (2007)) for detecting the accumulation as well as the subsequent oxidation of ^14C labeled substrates in cultured cells. Accumulation is monitored in real time by an established scintillation proximity assay in which the scintillator is embedded in the plate base primarily detecting cell-associated radiolabel. This method was applied, and the effect of EPA and DHA ascorbates on fatty acid oxidation rates in cultured primary human myocytes was determined The compounds tested were EPA, EPAX (EPAX), DHAX (DHAX), and EPAEE.
Cultured human primary myocytes from normal (non-diabetic, non-obese) subjects
Cells treated with 30, 100 and 300 micromolar of each compound for 48 hr
Cells grown in the presence of radiolabeled oleic acid
Radiolabeled CO2 released during the incubation was measured.
Each compound was tested 6 times (n=6)

The conditions of data set [2]: cited from earlier work.

Turning to `CC/C=C\C/C=C\C/C=C\C/C=C\C/C=C\C/C=C\CCC(=O)OC[C@H](O)[C@H]1OC(=O)C(O)=C1O` [DHA ascorbate], in data set [1], the “differences from control in fatty acid oxidation” value is given as “not statistically significant” and the “promotion of fatty acid oxidation (complete oxidation, CO2)” value is recorded as “to a lesser degree”.

For the compound `CC/C=C\C/C=C\C/C=C\C/C=C\C/C=C\CCCC(=O)OC[C@H](O)[C@H]1OC(=O)C(O)=C1O` [EPA ascorbate], in data set [1], the “differences from control in fatty acid oxidation” value is recorded as “not statistically significant” and the “promotion of fatty acid oxidation (complete oxidation, CO2)” value was “distinct trend”.

`CCCCCCCCCCCCCCCC(=O)OC[C@H](O)[C@H]1OC(=O)C(O)=C1O` [Palmitoyl ascorbate, 6-O-palmitoyl L-ascorbate]: the “solubility in aqueous ethanol” value in data set [2] (aqueous ethanol) is “soluble”. Further, the solubility in water result in data set [2] (water) is reported as “sparingly soluble”.
